# How the values were obtained:
# GSTZ1 = molecular target: T1, GSTZ1 (Homo sapiens, UniProt O43708); experiment: GSTZ1 enzymatic activity assay (CNBF-GSH adduct absorbance at 420 nm); assay type: biochemical; design: dose or concentration left out as unconfirmed; conditions: without UV irradiation, 10 mins, room temperature
# T1 sequence (O43708 1-216): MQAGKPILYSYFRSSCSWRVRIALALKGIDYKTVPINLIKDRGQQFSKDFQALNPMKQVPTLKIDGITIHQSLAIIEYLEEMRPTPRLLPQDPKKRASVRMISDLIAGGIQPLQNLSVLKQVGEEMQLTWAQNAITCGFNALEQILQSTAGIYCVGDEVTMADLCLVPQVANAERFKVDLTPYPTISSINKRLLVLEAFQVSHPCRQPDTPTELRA
# Protocol: The GSTZ1 activity assay with its substrate 4-Chloro-7-nitrobenzofurazan (CNBF) was read at 420 nm, which indicates the absorbance of CNBF-GSH adducts as previously reported^61. For experiments without UV irradiation, the reaction was started by adding DMSO or probe 17, 10 μg of recombinant GSTZ1 proteins, 0.2 mM of CNBF, and 2 mM of GSH at room temperature in a final volume of 100 μl HEPES buffer at pH 5.5. For UV irradiation experiments, GSTZ1 protein was incubated with DMSO or probe 17 for 10 minutes under UV light. Each reaction was performed as at least two biological replicates. Spectrophotometry measurements were recorded using an M5 Spectramax plate reader (Molecular devices). Data was processed and analyzed using Excel and GraphPad Prism 9.0. Optical density (OD) readouts of GSTZ1-catalyzed reactions were corrected by subtracting measurements of non-enzymatic reactions. Relative GSTZ1 activity was calculated by normalizing corrected OD readouts of GSTZ1-catalyzed reactions with probe 17 to that of GSTZ1-catalyzed reactions without probe 17. For assays with UV irradiation, recombinant GSTZ1 was produced in-house. To this end, 6His-GFP tag full length human GSTZ1 (Uniprot ID: 043708) with TEV protease cleavage site in pET28-a-(+) vector (GeneScript) was transformed into BL21 DE3 cells (Cat #EC0114, ThermoFisher). […]
# H1792 cells = experiment: In-gel fluorescence analysis of probe-labeled proteins after photocrosslinking in live H1792 cells; assay type: binding, human; conditions: compared to vehicle
# Protocol: Cells were grown in 10 cm dishes to ˜90% confluence at the time of treatment. Cells were carefully washed twice with Dulbecco's phosphate buffered saline (DPBS) and replenished with fresh serum-free RPMI 1640 media containing indicated probes ([…]), competitors, or DMSO. Without competitors, cells were incubated with probes for 30 min at 37° C. and then exposed to 365 nm UV light for 15 min on ice. With competitors, cells were pre-treated with competitors for 30 min and photoactivated for 15 min. Probes were then added to cells for an additional 30 min incubation. For no UV experiments, cells were incubated for 15 min under ambient light. Cells were harvested in cold DPBS and pellets were washed with cold DPBS (2 X). Pellets were either directly processed or kept frozen at −80° C. until use. Cells pellets were lysed for 30 min in cold DPBS (100-300 uL) per culture dish supplemented with 1% NP-40, followed by sonication (5 pulses, 4 s on, 20 s off, output setting=4). Lysates were centrifuged at 20,817×g for 20 min, and supernatant (soluble proteome) was used for further processing. Protein concentrations were determined using Bradford assays.
# To 1 mg of protein, were added a mixture of TBTA (Tris((1-benzyl-4-triazolyl)methyl)amine, 60 μL/sample, 1.7 mM in 1:4 DMSO: t-BuOH stock), CuSO4 (20 μL/sample, 50 mM in H2O), TCEP (tris(2-carboxyethyl) phosphine, 20 μL/sample, 50 mM in DPBS, made fresh) and Biotin-Azide conjugate (10 μL/sample, 10 mM in DMSO stock). Each sample was rotated at room temperature for 2 h. To each resultant a cold 4:1 mixture (600 μL) of methanol (MeOH)/chloroform (CHCl3) was added followed by cold PBS (100 μL) on ice. The resulting cloudy mixture was centrifuged (5,000×g, 10 min, 4° C.) to fractionate the protein interface from the organic and aqueous solvent layers. A MeOH:CHCl3 (1:1, 1 mL, 2×) mixture was used to wash protein discs thoroughly. Protein discs were sonicated in cold 4:1 MeOH:CHCl3 (2 mL) mixture. The remaining precipitate was pelleted by centrifugation (5,000×g, 10 min, 4° C.). […] Gels were subjected to fluorescence imaging or Western Blotting.
# [1] = tested on: H1792 cells harboring KRAS G12C; experiment: Cell viability assay (CellTiter-Glo) in H1792 cells; assay type: cell-based, human; conditions: probe combined with sotorasib in H1792 cells, dose of 50 μM (FIG. 9D)
# Protocol: Cells were seeded in Corning 384-well black walled/clear bottom microplates with a density of 1,000 cells/well and treated with indicated drugs and concentrations following cell attachment for 24 h. After 72 h or 96 h, as indicated, cell viability was evaluated with CellTiter-Glo (Promega, Madison, WI) according to manufacturer's recommendations. An M5 Spectramax plate reader (Molecular devices) was used to read the plates with 500 ms integration. Data was processed and analyzed using Excel and GraphPad Prism 9.0.
structure (smiles),measurement,setting,value
"C#CCCC1(CCC(=O)N2CCC(COc3nc4ccccc4nc3C)CC2)N=N1 [Probe 17, 3-(3-(but-3-yn-1-yl)-3H-diazirin-3-yl)-1-(4-(((3-methylquinoxalin-2-yl)oxy)methyl)piperidin-1-yl)propan-1-one]",GSTZ1 activity reduced by,GSTZ1,68%
same,proteome labeling by probe (in-gel fluorescence),H1792 cells,efficiently labeled a wide range of proteins
same,sensitization of cells towards sotorasib,[1],significantly enhanced the sensitivity

# Source: US20250313544A1, “INHIBITORS OF GLUTATHIONE S-TRANSFERASE ZETA 1 (GSTZ1) AND METHODS OF USE” (H. LEE MOFFITT CANCER CENTER AND RESEARCH INSTITUTE, INC., priority 2022, published 2025)
